Calls of active or inactive are those of the source.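 Rule for the calls: active = over 50% breakup of the Hsp90 and CDC37 protein complex, measured by pull-down and western blot; inactive = complex breakup under 10%.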
Biological target: Hsp90 co-chaperone Cdc37 (Homo sapiens) (UniProt Q16543)
Assay: disruption of Hsp90-CDC37 complex, late-stage follow-up, mechanism study for selective HSP90 inhibitor project, cell-based, chemiluminescence western blot, co-immunoprecipitation (AID 687006)
Details: MCF7 cells, Hsp90 co-IP CDC37 western blot, 24 h, hits give high values

Chain of Hsp90 co-chaperone Cdc37 (Homo sapiens) (Q16543 whole entry, looked up): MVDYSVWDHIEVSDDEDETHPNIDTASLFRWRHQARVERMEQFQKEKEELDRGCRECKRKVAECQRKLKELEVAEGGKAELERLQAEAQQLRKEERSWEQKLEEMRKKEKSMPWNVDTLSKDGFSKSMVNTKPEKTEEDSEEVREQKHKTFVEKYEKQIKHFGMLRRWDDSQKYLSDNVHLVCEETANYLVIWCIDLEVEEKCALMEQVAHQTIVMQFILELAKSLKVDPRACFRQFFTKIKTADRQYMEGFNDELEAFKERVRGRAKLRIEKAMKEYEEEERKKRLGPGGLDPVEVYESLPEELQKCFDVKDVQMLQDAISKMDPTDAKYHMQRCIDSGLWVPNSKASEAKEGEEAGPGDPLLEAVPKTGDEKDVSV

Compound: CCCCCCCCOc1ccc(NC(=O)c2coc(=O)c(Br)c2)cc1
- complex disruption (high dose (five times the growth IC50) 64.5 µM, low dose (half the growth IC50) 6.5 µM): > 50%

Compound: O=C(NCCc1ccc(F)cc1)c1coc(=O)c(Br)c1
- complex disruption (high dose (five times the growth IC50) 10.5 µM, low dose (half the growth IC50) 1.1 µM): < 10% (inactive)

Compound: CCCCOc1cccc(NC(=O)c2coc(=O)c(Br)c2)c1
- complex disruption (high dose (five times the growth IC50) 114 µM, low dose (half the growth IC50) 11.4 µM): < 10% (inactive)

Compound: COc1ccc(NC(=O)c2ccc(NC(=O)c3coc(=O)c(Br)c3)cc2)cc1
- complex disruption (high dose (five times the growth IC50) 60.5 µM, low dose (half the growth IC50) 6.1 µM): > 50%

Compound: CC(C)CNC(=O)c1coc(=O)c(Br)c1
- complex disruption (high dose (five times the growth IC50) 37.5 µM, low dose (half the growth IC50) 3.8 µM): > 50%

Compound: COc1ccc(NC(=O)c2coc(=O)c(Br)c2)cc1
- complex disruption (high dose (five times the growth IC50) 12 µM, low dose (half the growth IC50) 1.2 µM): > 50%

Compound: O=C(NCc1cccnc1)c1coc(=O)c(Br)c1
- complex disruption (high dose (five times the growth IC50) 17.5 µM, low dose (half the growth IC50) 1.8 µM): < 10% (inactive)

Compound: Cc1cc(NC(=O)c2coc(=O)c(Br)c2)ccc1C(C)C
- complex disruption (high dose (five times the growth IC50) 44.5 µM, low dose (half the growth IC50) 4.5 µM): < 10% (inactive)

Compound: CC(=O)c1ccc(NC(=O)c2coc(=O)c(Br)c2)cc1
- complex disruption (high dose (five times the growth IC50) 53.5 µM, low dose (half the growth IC50) 5.4 µM): > 50%

Compound: CC(NC(=O)c1coc(=O)c(Br)c1)C1C2CCC3CC(C2)CC31 (centres undefined)
- complex disruption (high dose (five times the growth IC50) 9 µM, low dose (half the growth IC50) 0.9 µM): < 10% (inactive)

Compound: O=C(NCc1ccco1)c1coc(=O)c(Br)c1
- complex disruption (high dose (five times the growth IC50) 24 µM, low dose (half the growth IC50) 2.4 µM): < 10% (inactive)

Compound: O=C(Nc1ccc(F)cc1)c1coc(=O)c(Br)c1
- complex disruption (high dose (five times the growth IC50) 17 µM, low dose (half the growth IC50) 1.7 µM): < 10% (inactive)

Compound: Cc1cccc(NC(=O)c2coc(=O)c(Br)c2)n1
- complex disruption (high dose (five times the growth IC50) 136.5 µM, low dose (half the growth IC50) 13.7 µM): < 10% (inactive)

Compound: O=C(Nc1ccccc1I)c1coc(=O)c(Br)c1
- complex disruption (high dose (five times the growth IC50) 147 µM, low dose (half the growth IC50) 14.7 µM): < 10% (inactive)
